Test results: the CATMoS acute toxicity set (Mansouri et al. 2021)

Experiment: GHS categories as the set defines them, by LD50: 1 up to 5, 2 up to 50, 3 up to 300, 4 up to 2000, 5 above 2000 mg/kg
Conditions: rat; in vivo; po

SMILES	GHS category
COC(=O)CC(C)C(=O)c1ccc(NC(=O)c2ccc(OC)cc2)c([N+](=O)[O-])c1 (centres undefined)	5
CCCCCCCCCCCCCOC(=O)CCCCC(=O)OCCCCCCCCCCCCC	5
CC1(C)S[C@@H]2[C@H](N3C(=O)C(c4ccccc4)NC3(C)C)C(=O)N2[C@H]1C(=O)O (some centres undefined)	5
COC(=O)CCCC(=O)OC	5
CC(=O)NC1CCc2nc(N)sc2C1 (centres undefined)	5
Cn1nnnc1SCCCC(=O)c1cccs1	4
O=C1c2ccc(N(c3ccc(Cl)cc3)c3ccc(Cl)cc3)cc2C(=O)N1Cc1cccnc1	5
Cc1ccc2[nH]c3cc4c(=O)c5cc(C)ccc5[nH]c4cc3c(=O)c2c1	5
CC1OC(OC2C(OC(=O)C=Cc3ccc(O)c(O)c3)C(CO)OC3OCC(c4ccc(O)c(O)c4)OC32)C(O)C(O)C1O (centres undefined)	5
CCO[Si](CCCNC=O)(OCC)OCC	5
CC1(C)S[C@@H]2[C@H](/N=C/N3CCCCCC3)C(=O)N2[C@H]1C(=O)O	5
O=C=Nc1ccc(Br)cc1	5
Cc1cc(Cc2cc(C)cc(C3CCCCC3)c2O)c(O)c(C2CCCCC2)c1	5
CCOCc1nc(=O)c2nccnc2[nH]1	5
CC1(C)O[C@@H]2C[C@H]3[C@@H]4C[C@H](F)C5=CC(=O)C=C[C@]5(C)[C@H]4[C@@H](O)C[C@]3(C)[C@]2(C(=O)CO)O1	1
CCC(C(=O)Oc1ccccc1OC)c1ccc(-c2ccccc2)cc1 (centres undefined)	5
CC(C)(C)c1ccc(C=O)cc1	4
CCCCCOC(=O)CCCC	5
C=CC(C)(CCC=C(C)C)OC(=O)c1ccccc1 (centres undefined)	5
CCC[C@H]1CC[C@H](c2ccc(O)cc2)CC1	5
CC(CCc1ccccc1)NCC(O)c1ccc(O)c(C(N)=O)c1 (centres undefined)	5
CC/C=C\CCOC(=O)Cc1ccccc1	5
N[C@@H](Cc1c[nH]c2ccccc12)C(=O)O	5

SMILES	GHS category
C=C(C#N)C(=O)OCCOC	5
CC(C)(c1cc(Br)c(O)c(Br)c1)c1cc(Br)c(O)c(Br)c1	5
CCCCCCCCCC(=O)N(C)C	5
O=C[C@H](O)[C@@H](O)[C@H](O)[C@H](O)CO[C@H]1O[C@H](CO[C@H]2O[C@H](CO)[C@@H](O)[C@H](O)[C@H]2O)[C@@H](O)[C@H](O)[C@H]1O	5
CCOC(=O)/C=C(C)/C=C/CC(C)CCCC(C)C (centres undefined)	5
FC(Cl)C(F)(F)C(F)(F)Cl (centres undefined)	5
CS(C)(=O)=O	5
COc1cc(O)c2c(=O)oc(CO)cc2c1	4
COc1cccc(OC)c1C(=O)NC(=O)Nc1c(F)cccc1F	4
CCCCC(CC)COC(=O)c1ccc(Nc2nc(Nc3ccc(C(=O)NC(C)(C)C)cc3)nc(Nc3ccc(C(=O)OCC(CC)CCCC)cc3)n2)cc1 (centres undefined)	5
CCCCCCCCNC(=O)c1cnc2cccc(C)n2c1=O	3
COc1ccc(Cl)cc1C(=O)NCCc1ccc(S(=O)(=O)NC(=O)NC2CCCCC2)cc1	5
COc1ccc(OC)c(C(O)CNC(=O)CN)c1 (centres undefined)	2
CO/N=C(\C(=O)N[C@@H]1C(=O)N2C(C(=O)O)=CCS[C@H]12)c1csc(N)n1	5
CC(=O)OCC(=O)[C@@]1(O)CC[C@H]2[C@@H]3C[C@H](C)C4=CC(=O)C=C[C@]4(C)[C@H]3[C@@H](O)C[C@@]21C	5
COc1cc2nc(N3CCN(C(=O)C4COc5ccccc5O4)CC3)nc(N)c2cc1OC (centres undefined)	5
O=C(O)c1ccc2ccccc2c1	5
Cc1cccc2ncc(C(=O)NCC(C)(C)C)c(=O)n12	3
CNCC(O)CO (centres undefined)	5
CCCC(=O)c1ccc2c(c1)OC(C)(C)C(=O)N2	5
O=C(O)c1cc(O)ccc1Nc1cccc(C(F)(F)F)c1	4
CC1(C)S[C@@H]2[C@H](NC(=O)C(c3ccccc3)S(=O)(=O)O)C(=O)N2[C@H]1C(=O)O (some centres undefined)	5
CCCCCCCCCC[C@H]1O[C@H]1CCCCC(C)C	5

SMILES	GHS category
COc1ccc(C(=O)Nc2ccc(C(N)=O)cc2)cc1[N+](=O)[O-]	5
COC1(C)CCCCCCCCCCC1	5
CCN(CC)c1ccc(N)cc1	3
CCCCCCCCCCCCCO[PH](=O)OCCCCCCCCCCCCC	5
O=C(O)c1cc(=O)c2c(OCC(O)COc3cccc4oc(C(=O)O)cc(=O)c34)cccc2o1	5
CC1(C(=O)Nc2ccc(O)c(Cl)c2Cl)CCCCC1	5
C/C=C(\C)C(=O)OC/C=C(\C)CCC=C(C)C	5
CC(C)Br	5
CCOP(=S)(OCC)N(SN(C)C(=O)ON=C(C)SC)C1CCCCC1	3
CCCCCCCCCCCCCCCCBr	5
NC(N)=Nc1nc2c(s1)CN(C(=O)NC1CC1)CC2	4
C(=C\c1ccccc1)/CN1CCN(C(c2ccccc2)c2ccccc2)CC1	5
CC(=O)OC1CCC(NCc2ccccc2N)CC1 (centres undefined)	5
CCOC(=O)CCCCC(=O)OCC	4
CCC(C)n1ncn(-c2ccc(N3CCN(c4ccc(OC[C@H]5CO[C@](Cn6cncn6)(c6ccc(Cl)cc6Cl)O5)cc4)CC3)cc2)c1=O (some centres undefined)	4
CCOC(=O)/C=C(C)/C=C/C=C(C)/C=C/c1c(C)cc(OC)c(C)c1C	5
O=[N+]([O-])c1ccc(OCC2CO2)cc1 (centres undefined)	5
C=CC(C)(O)CC/C=C(\C)CC/C=C(\C)CCC=C(C)C (centres undefined)	5
CC1CC(OC(=O)C(C)(C)Oc2cccc(C(F)(F)F)c2)CC(C)(C)C1 (centres undefined)	5
CNC(=O)c1c(I)c(NC(=O)CCCCC(=O)Nc2c(I)c(C(=O)O)c(I)c(C(=O)NC)c2I)c(I)c(C(=O)O)c1I	5
Nc1ccc(S(=O)(=O)c2ccc(NCCO)cc2)cc1	5
CCCCCCCC1CCCO1 (centres undefined)	5
CNC(=O)C(=NNc1cccc(C)c1)C(C)=O	5

SMILES	GHS category
CN1OCCC(=Cc2cc(C(C)(C)C)c(O)c(C(C)(C)C)c2)C1=O	4
COc1nc(C)nc(=NC(O)=NS(=O)(=O)c2ccccc2C(=O)O)[nH]1	5
C=C[Si](C)(C)O[Si](O[Si](C)(C)C=C)(O[Si](C)(C)C=C)O[Si](C)(C)C=C	5
C#CCC(O[Si](CC)(CC)CC)[Si](CC)(CC)CC (centres undefined)	5
CCCCCCCCCCN(C)C	5
C=CCCCCCCCCC(C)CCCCCCCC (centres undefined)	5
CCCCCCCCCCCCCCCCCC#N	5
CCN(Cc1cccc(S(=O)(=O)O)c1)c1ccc(C(=C2C=CC(=[N+](CC)Cc3cccc(S(=O)(=O)O)c3)C=C2)c2ccccc2S(=O)(=O)[O-])cc1	5
Cc1ccn2c(=O)c(C(=O)NC3CCCC3)cnc2c1	3
CCCCCCCCCCCC(=O)OC	5
CN1C(=O)COc2cc(C(=O)C=Cc3ccc(Cl)cc3)ccc21	5
Cc1cc(C)c(C(=O)P(=O)(c2ccccc2)c2ccccc2)c(C)c1	5
C=CCCCCCCCC(=O)OC	5
CC(C)OP(=O)(O)Oc1ccccc1	5
CC(Br)(CBr)COc1c(Br)cc(C(C)(C)c2cc(Br)c(OCC(C)(Br)CBr)c(Br)c2)cc1Br (centres undefined)	5
CCCc1c(Cc2ccc(-c3ccccc3-c3nn[nH]n3)cc2)c(OCCOC)nc2ncnn12	4
CO[C@H]1C[C@H](O[C@H]2[C@H](C)[C@@H](O[C@@H]3O[C@H](C)C[C@H](N(C)C)[C@H]3O)[C@H](C)C[C@@]3(CO3)C(=O)[C@H](C)[C@@H](O)[C@@H](C)[C@@H](C)OC(=O)[C@@H]2C)O[C@@H](C)[C@@H]1O	5
Cc1cc(-c2ccc(N=C=O)c(C)c2)ccc1N=C=O	5
CC(=O)OC1CCC2CCCCC2C1 (centres undefined)	5
CCC(=O)OCC(=O)[C@@]1(OC(=O)CC)[C@@H](C)C[C@H]2[C@@H]3CCC4=CC(=O)C=C[C@]4(C)[C@@]3(F)[C@@H](O)C[C@@]21C	5
CC(C)CC(C)(C)C	5
ClCCCCc1nnnn1C1CCCCC1	5
CSCC[C@H](NC(=O)[C@H](Cc1c[nH]c2ccccc12)NC(=O)CCNC(=O)OC(C)(C)C)C(=O)N[C@@H](CC(=O)O)C(=O)N[C@@H](Cc1ccccc1)C(N)=O	3

SMILES	GHS category
CC(=O)Nc1ccccc1CCNC(=O)c1ccc2ccccc2c1O	5
CC(C)C1OCCN1CCO (centres undefined)	4
CO/N=C(\C(=O)N[C@@H]1C(=O)N2C(C(=O)[O-])=C(C[N+]34CCC(C(N)=O)(CC3)CC4)CS[C@H]12)c1nsc(N)n1	5
Cc1cccc2ncc(C(=O)Nc3ccc(Cl)cc3)c(=O)n12	3
FC(F)(F)C(F)(F)C(Cl)Cl	5
CCOC(=O)C(=O)Nc1cc(SCCOCCOC)ncn1	4
CCCCCCCCCCCc1ccccc1	5
CC(C)COC(=O)Cc1ccccc1	5
CCOC(=O)C(F)C(C)=O (centres undefined)	3
NC(=O)Oc1ccccc1C(=O)Oc1ccc(Cl)cc1	5
CC(C)(C1CCC(O)CC1)C1CCC(O)CC1 (centres undefined)	5
CC(C)CCOC(=O)C=Cc1ccccc1	5
O=C(Nc1cc(Cl)c(Cl)cc1Cl)c1cc(Cl)cc(-c2ccccc2)c1O	5
CCNc1nc(Nc2ccccc2)nc(Nc2ccc(C=Cc3ccc(Nc4nc(NCC)nc(Nc5ccccc5)n4)cc3S(=O)(=O)O)c(S(=O)(=O)O)c2)n1	5
CCCc1nc(C)c2c(=O)nc(-c3cc(S(=O)(=O)N4CCN(CC)CC4)ccc3OCC)[nH]n12	5
CN1C(C(=O)Nc2ccccn2)=C(Nc2ccccn2)c2sc(Cl)cc2S1(=O)=O	2
CC(C)C(=O)OCCOc1ccccc1	5
CCCc1nc(C)n2[nH]c(=O)nc2c1Cc1ccc(-c2ccccc2-c2nn[nH]n2)cc1	4
CCOC(=O)C(C)(C)Br	5
CCCCOC(=O)c1ccc(-n2nc(OCCCN(C)C)c3ccccc32)cc1	4
CC1COC(Cn2cncn2)(c2cc3ccccc3o2)O1 (centres undefined)	4
Nc1ccc(C(=O)O)cc1	5
